Where two headings read alike, the source gives them in different places.
Experiments:
[1] = biological target: recombinant human A2A receptors (Homo sapiens, UniProt P29274); test: Radioligand competition binding to recombinant human A2A receptors in Sf9 cell membranes; settings: Ki from competition binding, Sf9 cell membranes
Description: (§1) Sf9 cells were cultured in Grace's medium supplemented with 10% fetal bovine serum, 2.5 μg/ml amphotericin B and 50 μg/ml gentamycin in an atmosphere of 50% N2/50% O2. […] Infected cells were harvested 3 days post-infection and washed twice in insect PBS (PBS pH 6.3). Cells were then resuspended in lysis buffer (20 mM HEPES pH 7.5, 150 mM NaCl, 3 mM MgCl2, 1 mM β-mercaptoethanol (BME), 5 μg/mL leupeptin, 5 μg/mL pepstatin A, 1 μg/mL aprotinin, and 0.1 mM PMSF) and snap frozen for storage at −80° C. Cells were thawed on ice, brought to 30 mL total volume in lysis buffer, and burst by N2 cavitation (600 psi for 20 minutes). A low-speed centrifugation was performed to remove any unlysed cells (1000×g for 10 minutes), followed by a high-speed centrifugation (17,000×g for 30 minutes). The pellet from the final centrifugation was homogenized in buffer containing 20 mM HEPES pH 8, 100 mM NaCl, 1% glycerol, 2 μg/mL leupeptin, 2 μg/mL pepstatin A, 2 μg/mL Aprotinin, 0.1 mM PMSF, and 10 μM GDP using a small glass homogenizer followed by passage through a 26 gauge needle. Membranes were aliquoted, snap frozen in liquid N2, and stored at −80° C.
(§2) Binding experiments were performed in triplicate with 5 μg (A2A) or 25 μg (A1 and A3) membrane protein in a total volume of 0.1 mL HE buffer (20 mM HEPES and 1 mM EDTA) with 1 U/mL adenosine deaminase and 5 mM MgCl2 with or without 50 μM GTPγS. Membranes were incubated with radioligands at room temperature for three hours (for agonists) or two hours (for antagonists) in Millipore Multiscreene® 96-well GF/C filter plates and assays were terminated by rapid filtration on a cell harvester (Brandel, Gaithersburg, Md.) followed by 4×150 μl washes over 30 seconds with ice cold 10 mM Tris-HCl, pH 7.4, 10 mM MgCl2.

human neutrophils = test: Human neutrophil oxidative activity, luminol-enhanced chemiluminescence; type: cell-based; settings: for EC50: Homo sapiens, Neutrophil, read-out: PMN oxid (-log EC50) (converted); for EC50 / PMN oxid (-log EC50): human neutrophil experiment w/o Rolipram; for PMN oxid + roli (-log EC50): human neutrophil experiment w/Rolipram
Description: Chemiluminescence Methods: Lumninol enhanced chemiluminescence, a measure of neutrophil oxidative activity, is dependent upon both superoxide production and mobilization of the granule enzyme myeloperoxidase. The light is emitted from unstable high-energy oxygen species such as hypochlorous acid and singlet oxygen generated by activated neutrophils.
The plate was incubated 5 min (37 C) and then fMLP (50 l in HA; final concentration […]) was added to all wells.
Data are presented as peak chemiluminescence as percent of activity in the absence of an adenosine agonist. The EC50 was determined using PRISM software. All compounds were tested with PMNs from three separate donors.
Lummol-enhanced chemiluminescence, a measure of neutrophil oxidative activity, is dependent upon both superoxide production and mobilization of the lysosomal granule enzyme myeloperoxidase. The light is emitted from unstable high-energy oxygen species generated by activated neutrophils. Purified neutrophils (5-10×10^5/ml) were incubated in Hanks balanced salt solution containing 0.1% human serum albumin (1 ml) with the tested A2A agonist with or without rolipram and with or without tumor necrosis factor-alpha (1 U/ml) for 30 minutes at 37° C. in a shaking water bath. […] Chemiluminescence is reported as relative peak light emitted (=height of the curve) compared to samples with tumor necrosis factor-alpha and without agonist or rolipram.

A3 AR = biological target: T1, A3 AR (Homo sapiens, UniProt P0DMS8); test: Radioligand competition binding (125I-ABA) to human A3 AR in HEK 293 cell membranes; settings: for Ki: Ki from competition binding, 125I-ABA, HEK 293 cell membranes; for A3/A2A: selectivity ratio A3 over A2A
T1 sequence (P0DMS8 1-318): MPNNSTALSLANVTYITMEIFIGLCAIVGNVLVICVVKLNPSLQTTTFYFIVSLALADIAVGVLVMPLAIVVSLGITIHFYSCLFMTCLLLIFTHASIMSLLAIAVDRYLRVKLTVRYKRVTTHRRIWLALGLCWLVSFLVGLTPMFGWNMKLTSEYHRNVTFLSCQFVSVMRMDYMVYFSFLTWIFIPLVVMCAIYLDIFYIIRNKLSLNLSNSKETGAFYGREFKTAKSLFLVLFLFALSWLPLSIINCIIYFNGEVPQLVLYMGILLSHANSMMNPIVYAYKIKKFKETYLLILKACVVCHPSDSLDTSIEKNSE
Description: as §1, §2

human A1 AR = biological target: T2, human A1 AR (Homo sapiens, UniProt P30542); test: Radioligand competition binding (125I-ABA) to human A1 AR in CHO K1 cell membranes; settings: for Ki: Ki from competition binding, 125I-ABA, CHO K1 cell membranes; for A1/A2A: selectivity ratio A1 over A2A
T2 sequence (P30542 1-326): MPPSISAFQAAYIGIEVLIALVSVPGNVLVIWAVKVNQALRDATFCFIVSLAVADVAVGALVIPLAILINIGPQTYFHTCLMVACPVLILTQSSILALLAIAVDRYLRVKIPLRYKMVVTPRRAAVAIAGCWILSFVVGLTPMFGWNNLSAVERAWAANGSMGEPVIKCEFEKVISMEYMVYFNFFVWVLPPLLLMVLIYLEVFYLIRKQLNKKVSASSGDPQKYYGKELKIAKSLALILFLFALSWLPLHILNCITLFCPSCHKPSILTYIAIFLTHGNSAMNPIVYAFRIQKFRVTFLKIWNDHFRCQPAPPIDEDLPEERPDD

recombinant human A2A receptors, sequence (P29274 whole entry): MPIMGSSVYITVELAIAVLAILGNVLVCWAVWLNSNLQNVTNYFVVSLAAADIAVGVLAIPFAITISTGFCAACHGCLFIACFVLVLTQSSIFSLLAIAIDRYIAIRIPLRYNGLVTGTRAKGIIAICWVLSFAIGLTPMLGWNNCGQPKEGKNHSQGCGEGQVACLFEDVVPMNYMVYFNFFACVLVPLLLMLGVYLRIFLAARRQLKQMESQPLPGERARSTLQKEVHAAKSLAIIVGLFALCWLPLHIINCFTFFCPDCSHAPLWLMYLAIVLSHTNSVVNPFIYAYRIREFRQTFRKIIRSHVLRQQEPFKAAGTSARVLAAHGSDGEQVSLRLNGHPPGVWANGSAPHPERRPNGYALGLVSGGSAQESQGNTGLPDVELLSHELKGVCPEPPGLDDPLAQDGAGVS

Structure (SMILES)	Ki ([1]; A2A ± SEM) [nM]	EC50 (human neutrophils) [nM]	PMN oxid + roli (-log EC50) (human neutrophils)	Ki (A3 AR; A3 ± SEM) [nM]	A3/A2A (A3 AR)	Ki (human A1 AR; A1 ± SEM) [nM]	A1/A2A (human A1 AR)	Ki ([1]; read-out: A2A ± SEM) [nM]	PMN oxid (-log EC50) (human neutrophils)	Ki (A3 AR; read-out: A3 ± SEM) [nM]	Ki (human A1 AR; read-out: A1 ± SEM) [nM]
CCNC(=O)C1CCC(CC#Cc2nc(N)c3ncn([C@@H]4O[C@H](C(=O)NCC)C(O)C4O)c3n2)CC1 (stereo in doubt) [JR-3037, 5-{6-Amino-2-[3-(4-ethylcarbamoyl-cyclohexyl)-prop-1-ynyl]-purin-9-yl}-3,4-dihydroxytetrahydrofuran-2-carboxylic acid ethylamide]	4.1 ± 0.9	45.7	8.68	93 ± 21	22.7	113 ± 11	27.6	–	–	–	–
CCNC(=O)[C@H]1O[C@@H](n2cnc3c(N)nc(C#CCC4CCC(C(=O)O)CC4)nc32)C(O)C1O (stereo in doubt) [ATL-146a, 4-{3-[6-Amino-9-(5-ethylcarbamoyl-3,4-dihydroxytetrahydrofuran-2-yl)-9H-purin-2-yl]-prop-2-ynyl}-cyclohexanecarboxylic acid]	29.6 ± 1.2	912	7.72	29 ± 10	1.0	189 ± 19	6.4	–	–	–	–
CCNC(=O)C1OC(n2cnc3c(N)nc(C#CCC4CCNCC4)nc32)C(O)C1O (stereo not drawn) [JR-3261]	–	–	7.6	–	15.2	–	8.3	5.7 ± 1.8	6.4	86.7 ± 3.75	47.3 ± 11.6
CCNC(=O)[C@H]1O[C@@H](n2cnc3c(N)nc(C#CCN4CCC(C(=O)OCC)CC4)nc32)C(O)C1O (stereo in doubt) [JR-3279, 1-{3-[6-Amino-9-(5-ethylcarbamoyl-3,4-dihydroxytetrahydrofuran-2-yl)-9H-purin-2-yl]-prop-2-ynyl}-piperidine-4-carboxylic acid ethyl ester]	3.82 ± 0.95	13.8	–	–	0.0	14.4	3.8	–	–	–	–
CCNC(=O)C1OC(n2cnc3c(N)nc(C#CC(O)C4CCCCC4)nc32)C(O)C1O (single isomer, unassigned) [JR-3159A]	–	–	9.34	–	6.6	–	1.4	0.6 ± 0.06	8.43	3.9 ± 1.5	0.9 ± 0.05
CCNC(=O)[C@H]1O[C@@H](n2cnc3c(N)nc(C#CC4(O)CCCCC4C)nc32)C(O)C1O (single isomer, unassigned) [JR-3177B, 5-[6-Amino-2-(1-hydroxy-2-methyl-cyclohexylethynyl)-purin-9-yl]-3,4-dihydroxytetrahydrofuran-2-carboxylic acid ethylamide]	0.7 ± 0.07	–	9.45	7.5 ± 4.5	11.2	15.5 ± 0.7	23.1	–	8.5	–	–
CCNC(=O)[C@H]1O[C@@H](n2cnc3c(N)nc(C#CCC4CCC(C(=O)OCCN)CC4)nc32)C(O)C1O (stereo in doubt) [JR-3033, 4-{3-[6-Amino-9-(5-ethylcarbamoyl-3,4-dihydroxy-tetrahydrofuran-2-yl)-9H-purin-2-yl]-prop-2-ynyl}-cyclohexanecarboxylic acid 2-amino-ethyl ester]	1.6 ± 0.02	49	8.67	26 ± 14	16.7	15.1 ± 3.9	9.7	–	–	–	–
CCNC(=O)[C@H]1O[C@@H](n2cnc3c(N)nc(C#C[C@@]4(O)CCC[C@@H](C)C4)nc32)C(O)C1O (stereo partly drawn) [JR-3221, 5-[6-Amino-2-(1-hydroxy-3-methylcyclobexylethynyl)purin-9-yl]-3,4-dihydroxytetrahydrofuran-2-carboxylic acid ethylamide]	5.08 ± 0.81	50.1	8.21	9 ± 5.5	1.8	19.5 ± 0.12	3.8	–	–	–	–
CCNC(=O)[C@H]1O[C@@H](n2cnc3c(N)nc(C#CCC4CCC(C)(C(=O)OC)CC4)nc32)C(O)C1O (single isomer, unassigned) [JR-3067A, 4-{3-[6-Amino-9-(5-ethylcarbamoyl-3,4-dihydroxytetrahydrofuran-2-yl)-9H-purin-2-yl]-prop-2-ynyl}-1-methyl-cyclohexanecarboxylic acid methyl ester]	1.3 ± 0.8	–	8.7	39 ± 3	30.0	99 ± 27	76.2	–	7.65	–	–
CCNC(=O)[C@H]1O[C@@H](n2cnc3c(N)nc(C#CC4(O)CCCCC4C)nc32)C(O)C1O (single isomer, unassigned) [JR-3177A, 5-[6-Amino-2-(1-hydroxy-2-methyl-cyclohexylethynyl)-purin-9-yl]-3,4-dihydroxytetrahydrofuran-2-carboxylic acid ethylamide]	1.2 ± 0.35	–	9.03	6.7 ± 0.3	5.5	8.7 ± 0.07	7.1	–	7.53	–	–
CCNC(=O)[C@H]1O[C@@H](n2cnc3c(N)nc(C#CC4(O)CCCCNC4=O)nc32)C(O)C1O (single isomer, unassigned) [JR-3243A, 5-[6-Amino-2-(3-hydroxy-2-oxo-azepan-3-ylethynyl)purin-9-yl]-3,4-dihydroxytetrahydrofuran-2-carboxylic acid ethylamide]	11.9 ± 1.3	–	7.65	31.1 ± 7.2	2.6	29.6 ± 4.8	2.5	–	6.42	–	–
CCNC(=O)[C@H]1O[C@@H](n2cnc3c(N)nc(C#CCN4CCCCC4C(=O)OC)nc32)C(O)C1O (stereo partly drawn) [JR-3253, 1-{3-[6-Amino-9-(5-ethylcarbamoyl-3,4-dihydroxytetrahydrofuran-2-yl)-9H-purin-2-yl]-prop-2-ynyl}-piperidine-2-carboxylic acid methyl ester]	3.29 ± 0.49	43.7	8.42	31.3 ± 9.3	9.5	13.8 ± 0.5	4.2	–	–	–	–
CCNC(=O)[C@H]1O[C@@H](n2cnc3c(N)nc(C#CCC4CCC(C(=O)NC)CC4)nc32)C(O)C1O (stereo in doubt) [JR-3065, 5-{6-Amino-2-[3-(4-methylcarbamoyl-cyclohexyl)-prop-1-ynyl]-purin-9-yl}-3,4-dihydroxytetrahydrofuran-2-carboxylic acid ethylamide]	3.6 ± 0.5	102	8.29	28 ± 13	7.8	55 ± 13	15.3	–	–	–	–
CCNC(=O)[C@H]1O[C@@H](n2cnc3c(N)nc(C#CCN4CCN(c5ncccn5)CC4)nc32)C(O)C1O (stereo in doubt) [JR-3283, 5-{6-Amino-2-[3-(4-pyrimidin-2-yl-piperazin-1-yl)-prop-1-ynyl]-purin-9-yl}-3,4-dihydroxytetrahydrofuran-2-carboxylic acid ethylamide]	2 ± 0.25	5.75	–	66.2	19.0	15.3 ± 0.4	4.6	–	–	–	–
CCNC(=O)C1OC(n2cnc3c(N)nc(C#CC4(N)CCCCC4)nc32)C(O)C1O (stereo not drawn) [JR-3205]	–	–	8.08	–	9.3	–	4.2	3.4 ± 0.3	7.22	31.6 ± 26.5	14.2 ± 1.08

Reference: patent publication US7737127B2, “2-propynyl adenosine analogs having A2A agonist activity and compositions thereof” (University of Virginia Patent Foundation, priority 2001, dated 2010)
